# Experimental data from US4200639A, “Sesbanine and the use thereof in treating leukemic tumors” (The United States of America as represented by the …, priority 1979, dated 1980).
# Columns and labels:
# KB Cell = KB Cell Culture Screen (NCI Protocol 1.600); type: cell-based
# Source text: The chemotherapeutic activities of the fractions obtained in the isolation procedure may be determined by a KB Cell Culture Screen in accordance with the National Cancer Institute Protocol 1.600 [Geran et al., Cancer Chemother.
# [1] = system: lymphocytic leukemia cells of the strain P388 (PS tumors); experiment: Survival of mice implanted with lymphocytic leukemia P388 (NCI Protocol 1.200); conditions: mouse, in vivo
# Method: The effectiveness of alkaloid compounds against lymphocytic leukemia cells of the strain P388 (PS tumors) implanted in mice is another method of determining activity. These assays are made according to the National Cancer Institute Protocol 1.200 described in Geran et al. referred to above. […] Starting 24 hr. after the tumor implantation, previously determined dosages of each compound were injected intraperitoneally once a day for 9 days. Survival time of treated leukemic mice is compared to that of untreated leukemic mice (T/C×100). A T/C value of 100% indicated no activity.
# ^2 All mice were male, CD2 F1.
# ^3 The injection vehicle was saline.
# ^4 One intraperitoneal injection per day for 9 days.
smiles,measurement,setting,value
"O=C1NC(=O)[C@@]2(CC[C@@H](O)C2)c2ccncc21 (relative stereo) [sesbanine, trans-3-hydroxyspiro[cyclopentane-1,4'(1'H)[2,7]naphthyridine]-1',3'(2'H)-dione]",IC50,"KB Cell; Homo sapiens, KB, 72 h, 3 days after drug addition, active if ED 50 ≤30 μg./ml., read-out: ED 50 (dose that inhibits growth to 50% of control growth)",0.047 µg/mL
same,activity of fractions during isolation (in words),"KB Cell; among fractions of the respective separation step, Example 1",the most active
same,activity against leukemia in animals (in words),[1],potent activity against leukemia in animals
